{
  "source": "patent US20220193016A1",
  "about": "“COMPOSITIONS, METHODS AND USES FOR TARGETING C-TERMINAL BINDING PROTEIN (CtBP) IN [sequence] BRAIN INJURY” (THE REGENTS OF THE UNIVERSITY OF COLORADO, A BODY CORPORATE, priority 2019, published 2022)",
  "key": {"[1]": {"tested_on": "repetitive mild TBI (two 0.5 J impacts 24 h apart)", "assay": "Repetitive mild TBI in mice (NSS, brain mRNA)", "format": "in vivo, mouse", "experimental": "In another exemplary experiment, mice (n=4 per group) were subjected to a single mild TBI of 0.5 J dose at 0 h (sTBI) or two doses of 0.5 J mild TBI (rTBI) that were 24 h apart, at 0 h and 24 h. Animals with rTBI were separated into three. groups untreated, intraperitoneally injected with MTOB (860 mg/kg) or NSC95397 (1.5 mg/kg) at 1 h and 18 h. Animals were tested right before the two MTOB injection (0 h and 18 h) and then daily for neurobehavioral preformance. At the end point (72 h), the brain and circulating leukocytes were collected for molecular and immunostaining analyses.\nFIGS. 9A-9D. Administration of MTOB and NSC95397 after a single mild TBI effectively subdues neuroinflammation and improves neurological outcome elicited by a second mild TBI. Mice (n=4 per group) were subjected to a single mild TBI of 0.5 J dose at 0 h (sTBI) or two doses of 0.5 J mild TBI, 24 h apart, at 0 h and 24 h (rTBI). The three rTBI groups were either untreated, treated with MTOB (860 mg/kg) or NSC95397 (1.5 mg/kg) at […] and 18 h. (9A) Neurobehavioral severity scale (NSS) analysis was performed at the indicated time points after the first TBI; the scores were shown as mean+SD. (9B) Bar graphs represent mean±SD of fold changes in mRNA levels in the brain. (9A) Experimental timeline. Mice received a single head impact of 0.5 J energy (1×TBI), or two 0.5 J impacts (2×TBI) spaced 24 h apart. […]"}, "[2]": {"tested_on": "imiquimod-induced psoriasis-like skin inflammation", "assay": "Imiquimod animal model of psoriasis-like skin inflammation", "format": "in vivo, mice", "details": "peptides topically daily from day 3 of imiquimod course; day 7"}, "[3]": {"tested_on": "DNFB-induced contact hypersensitivity (CHS)", "assay": "DNFB mouse model of contact hypersensitivity", "format": "in vivo", "details": "peptides topically on the ear day 6 through day 9", "description": "In another exemplary method, FIG. 14A-14B illustrate the effectiveness of additional CtBP inhibiting peptides in reducing skin inflammation caused by sensitization and elicitation with the hapten 2,4-dinitrofluorobenzene (DNFB). Peptides MH-3, MH-4, MH-6 and MH-7 were derived from MH-2, all containing a polyarginine sequence to promote membrane transduction, with variations at the linker or flanking sequence of the PIDLS motif. […] The thickness of the epidermis of the ear is indicated by the red square bracket. It is noted that the DNFB-induced CHS in mice is an established model for human allergic contact dermatitis, both of which are T cell-mediated delayed hypersensitivity responses. Mice (n=3) were sensitized on day 1 with […] of 0.5% DNFB on the abdomen surface and challenged on day 6 with […] of 0.5% DNFB on both sides of the ears to trigger T memory cell-mediated hypersensitivity reaction. Peptides ([…]) were topically administered on both sides of the ear 1 h after the DNFB application on day 6 through day 9. Ear swelling and reddening were examined daily till the end point (day 9)."}, "[4]": {"tested_on": "isolated mouse hippocampus", "assay": "LPS-induced expression of CtBP target genes in isolated mouse hippocampus", "details": "20 mM Pep1-E1As 2 h, then 200 ng/mL LPS 2 h; mRNA, FIG. 6C", "experimental": "In another exemplary method, a CtBP inhibitor was analyzed for effects on CtBP target gene expression using methods disclosed herein. […] FIG. 6A represents primary microglia that were incubated with 20 μM Pep1-E1As for 2 hours followed by 2 hours of treatment with 200 ng/mL LPS. Bar graphs represent mean±SD of fold changes in mRNA levels. […] FIG. 6C represents isolated mouse hippocampus that were incubated with […] Pep1-E1As for 2 hours followed by 2 hours treatment with 200 ng/mL LPS. Bar graphs represent mean±SD of fold changes in mRNA levels."}, "[5]": {"tested_on": "LPS-activated primary microglia", "assay": "LPS-induced expression of CtBP target genes in primary microglia (mRNA)", "format": "cell-based, mouse", "details": "for LPS-induced expression of the CtBP-controlled inflammatory genes: primary microglia from neonatal mouse brain, 20 μM peptide 2 h, then 200 ng/mL LPS 2 h, mRNA"}, "[6]": {"tested_on": "LPS-activated primary astrocytes", "assay": "LPS-induced expression of CtBP target genes in primary astrocytes (mRNA)", "format": "cell-based", "details": "primary astrocytes from neonatal mouse brain, data not shown"}, "RAW264.7 cells": {"tested_on": "RAW264.7 cells", "assay": "Expression of CtBP target genes in LPS-activated RAW264.7 macrophage cell line (RT-qPCR)", "format": "cell-based, mouse", "details": "siRNA 24 h, then LPS 200 ng/ml 6 h", "experimental": "(§1) Murine RAW264.7 (A) and BV2 (B) cells were transfected with siRNAs specific for CtBP1 and CtBP2 or scrambled control siRNAs for a period of 24 h, followed by LPS stimulation (200 ng/ml) for 6 h. Total RNA was extracted and analyzed by the RT-qPCR. Relative mRNA expression was normalized to that of ACTB and depicted as fold changes vs. scrambled siRNA transfected and non-stimulated control (Untreated). Data are presented as mean±SD. n=3; **p<0.01, ***p<0.001. FIG. 2C illustrates LPS-induced binding of CtBP1, CtBP2 and p300 to the IL1β, IL6, TNFα and S100A8 gene promoters. Chromatin fractions from control and LPS-treated BV2 cells were precipitated with antibodies specific to CtBP1, CtBP2 and p300. Bars represent fold changes of relative ChIP signals normalized to the respective controls.\n(§2) In this exemplary study, cells were pretreated with 0.5 or 2.5 mM MTOB for 2 h or 18 h, then with 100 ng/mL LPS for an additional 2 h before being harvested for analysis, using RT-qPCR. Bar graphs represent mean±SD of fold changes in mRNA levels. […]\nIn another exemplary method as illustrated in FIG. 11 relative CtBP1, CtBP2, IL6, S100A8, NRLP3, E-cadherin and Bax mRNA levels in RAW264.7 macrophages stimulated with 100 ng/ml of LPS for 6 h before post-treatment with MTOB for 2 h and at dosages of 0.5 mM and 2.5 mM MTOB sodium salt were analyzed. […]"}, "BV2 cells": {"tested_on": "BV2 cells", "assay": "Expression of CtBP target genes in LPS-activated BV2 microglia cell line (RT-qPCR)", "format": "cell-based, mouse", "details": "siRNA 24 h, then LPS 200 ng/ml 6 h", "experimental": "In one exemplary method, BV2 cells were treated with CtBP-specific siRNAs 24 hours prior to a 6-hour treatment with LPS. In this example, siCtBP1 (SEQ. NO.1) and siCtBP2 (SEQ. NO.2) were used. Relative mean mRNA levels (±SD) were determined by RT-qPCR, performed in triplicate and in two independent experiments.\nas §1, §2"}},
  "data": [
    {"compound": "O=C1C(SCCO)=C(SCCO)C(=O)c2ccccc21", "note": "[NSC95397, 2,3-Bis[(2-hydroxyethyl)thio]-1,4-naphthoquinone]", "values": [
      {"measurement": "inflammatory gene induction (brain mRNA) after repetitive mild TBI", "setting": "[1]; i.p. MTOB 860 mg/kg or NSC95397 1.5 mg/kg at 1 h and 18 h, 72 h after first injury", "value": "significantly reduced"},
      {"measurement": "neurobehavioral defects (NSS) after repetitive mild TBI", "setting": "[1]; i.p. MTOB 860 mg/kg or NSC95397 1.5 mg/kg at 1 h and 18 h after first injury", "value": "significantly reduced"}
    ]},
    {"compound": "MH-2: SEQ ID NO. 19 RRRRRRRRGGPIDLSKKA (18 aa) (Synthetic Sequence - MH-2)", "values": [
      {"measurement": "imiquimod-induced epidermal proliferation (H&E, epidermis thickness)", "setting": "[2]", "value": "as effective in reducing imiquimod-induced epidermal proliferation as the prototype Pep1-E1A"},
      {"measurement": "epidermal hyperproliferation of the ear", "setting": "[3]", "value": "reducing epidermal hyperproliferation and immunocyte infiltration"},
      {"measurement": "immunocyte infiltration (CD45 immunohistochemistry)", "setting": "[3]", "value": "reducing epidermal hyperproliferation and immunocyte infiltration"}
    ]},
    {"compound": "Pep1-E1AWT: SEQ ID NO. 5 GSHMKETWWETWWTEWSQPKKKRKVLEEPGQPLDLSCKRPRDYKDDDDK; FLAG-tagged Pep1 fusion with wild-type E1A sequence", "values": [
      {"measurement": "imiquimod-induced epidermal proliferation (H&E, epidermis thickness)", "setting": "[2]", "value": "reducing imiquimod-induced epidermal proliferation"},
      {"measurement": "expression of CtBP target gene in LPS-activated isolated mouse hippocampus", "setting": "[4]", "value": "inhibition of expression of CtBP target gene"},
      {"measurement": "LPS-induced expression of the CtBP-controlled inflammatory genes", "setting": "[5]", "value": "inhibited LPS-induced expression"},
      {"measurement": "LPS-induced expression of the CtBP-controlled inflammatory genes", "setting": "[5]; listed as Pep1-E1A", "value": "strongly suppressed"},
      {"measurement": "basal mRNA levels of CDH1 and BAX (genes repressed by CtBPs)", "setting": "[5]; primary microglia, FIG. 6A right panel", "value": "increased the basal mRNA levels"},
      {"measurement": "LPS-induced expression of the CtBP-controlled inflammatory genes", "setting": "[6]", "value": "inhibited LPS-induced expression"},
      {"measurement": "LPS-induced expression of the CtBP-controlled inflammatory genes", "setting": "[6]; listed as Pep1-E1A", "value": "strongly suppressed"}
    ]},
    {"compound": "siRNAs specific for CtBP1 and CtBP2: simultaneous use of mouse siCtBP1 (SEQ. NO.1) and siCtBP2 (SEQ. NO.2) (chain 1 UCUUCCACAGUGUGACUGCGUUAUUUU; chain 2 GCCUUUGGAUUCAGCGUCAUAUUU; listed as RNA, chemistry not given here)", "values": [
      {"measurement": "mRNA expression of proinflammatory genes after knockdown", "setting": "RAW264.7 cells", "value": "suppresses mRNA expression of proinflammatory genes"},
      {"measurement": "mRNA expression of proinflammatory genes after knockdown", "setting": "BV2 cells", "value": "suppresses mRNA expression of proinflammatory genes"}
    ]}
  ]
}
